The subject of experiment [1] is OVCAR5 xenograft tumors. Description: Ovarian cancer xenograft mouse model, tumor growth. It is filed as in vivo, mice. The following applies: 1.5 mg/kg cisplatin and 50 mg/kg ZC-22 ip. The method, then: Six-week-old female athymic nude mice (Homozygous) were purchase from Vital River Laboratories (Beijing, China) and maintained under the guidelines for laboratory animals of Nankai university (NKU). Mice were injected subcutaneously with 2 × 10^6 MDA-MB-231 or 8 × 10^6 OVCAR5 cells. When tumors were 50–100 mm^3 in size, the mice were randomly grouped and treated intraperitoneal (i.p.) with 50 mg/kg of Olaparib, 50 mg/kg of LY2835219, 50 mg/kg of ZC-22, or 1.5 mg/kg of cisplatin alone or in combinations or with the vehicle (PBS containing 10% DMSO and 10% 2-hydroxy-propyl-β-cyclodextrin) every 2 days. Tumor volume was measured every 3–4 days, which was calculated as Length × Width^2/2. At the end of the study, tumor and major organ tissues were harvested by surgery. For histopathological analysis, tissue samples were washed with PBS, fixed in 4% paraformaldehyde (PFA), paraffin-embedded, and sectioned into 7 μm thickness. […]
Figure 7 ZC-22 increases the efficacy of cisplatin treatment in ovarian cancer cells in vivo. […] Tumor volumes were measured every 2–3 days. […] (B,C) Pictures (B) and quantification of the size (C) of the OVCAR5 xenograft tumors at the end points. […] (D,E) Representative pictures (D) and quantification of percentage (E) of Ki67 and γH2A.X-positive cells in immunohistochemical staining of the OVCAR5 xenograft tumor tissues. […]

Experiment [2] deals with MDA-MB-231 xenograft tumors. Kind of experiment: Breast cancer xenograft mouse model, tumor growth. It is filed as in vivo, mice. As to the method:
Six-week-old female athymic nude mice (Homozygous) were purchase from Vital River Laboratories (Beijing, China) and maintained under the guidelines for laboratory animals of Nankai university (NKU). Mice were injected subcutaneously with 2 × 10^6 MDA-MB-231 or 8 × 10^6 OVCAR5 cells. When tumors were 50–100 mm^3 in size, the mice were randomly grouped and treated intraperitoneal (i.p.) with 50 mg/kg of Olaparib, 50 mg/kg of LY2835219, 50 mg/kg of ZC-22, or 1.5 mg/kg of cisplatin alone or in combinations or with the vehicle (PBS containing 10% DMSO and 10% 2-hydroxy-propyl-β-cyclodextrin) every 2 days. Tumor volume was measured every 3–4 days, which was calculated as Length × Width^2/2. At the end of the study, tumor and major organ tissues were harvested by surgery. For histopathological analysis, tissue samples were washed with PBS, fixed in 4% paraformaldehyde (PFA), paraffin-embedded, and sectioned into 7 μm thickness. For Western blot analysis, the tissue samples were dissociated by a tissue-tearor in RIPA buffer containing 1×protease and phosphatase inhibitors.
Figure 4 ZC-22 suppresses growth of breast cancer xenografts. Female NOD-SCID mice were injected subcutaneously with 2 × 10^6 of MDA-MB-231 cells and treated ip daily with 50 mg/kg of Olaparib (OLA) or LY2835219 (LY-2) alone or together (OLA + LY-2) or with ZC-22 alone starting on day 10 after injection of cells when tumors were 50–80 mm^3 in size. Tumor volumes were measured every 2–3 days. […] (B,C) Pictures of (B) and quantification of the size of (C) the MDA-MB-231 xenograft tumors at the end points. […] (E) Quantification of Ki67 (Left) and γH2A.X (Right)-positive cells in immunohistochemical staining of the xenograft tumor tissues. […]
Figure 6 ZC-22 sensitizes breast cancer cells to cisplatin treatment in vivo. […] Tumor volumes were measured every 2–3 days. […] (B,C) Pictures (B) and quantification of the size (C) of the MDA-MB-231 xenograft tumors at the end points. […] (E) Quantification of Ki67 (left) and γH2A.X (right)-positive cells in immunohistochemical staining of the xenograft tumor tissues. […]

Take `Cc1nc2c(F)cc(-c3nc(Nc4ccc(N5CCN(C(=O)c6cc(Cc7n[nH]c(=O)c8ccccc78)ccc6F)CC5)cn4)ncc3F)cc2n1C(C)C` [ZC-22, 4-(4-fluoro-3-(4-(6-((5-fluoro-4-(4-fluoro-1-isopropyl-2-methyl-1H-benzo[d]imidazole-6-yl)pyrimidin-2-yl)amino)pyridin-3-yl)piperazine-1-carbonyl)benzyl)phthalazin-1(2H)-one]: in experiment [1], the “sensitization to cisplatin treatment (tumor growth)” value is on record as “significantly sensitized ovarian cancer cells to cisplatin treatment”. The “growth of the xenograft tumors” value in experiment [2] (1.5 mg/kg cisplatin or 50 mg/kg ZC-22 ip alone or together) is “effectively inhibit growth of the xenograft tumors”. In experiment [2] (50 mg/kg ip, Olaparib and LY2835219 alone or together, or ZC-22), the “anti-tumor efficacy (tumor growth)” value is “even higher therapeutic efficacy than combined Olaparib and Abemaciclib therapy”.
